Measurements as given in publication PMC11273260.

Assays:
[1] = system: MCF-7 breast carcinoma cell line; experiment: MTT cytotoxic activity against MCF-7 breast carcinoma cell line; conditions: Homo sapiens, MCF7, read-out: IC50 (μM) MCF-7
EGFR kinase = molecular target: T1, EGFR kinase (Homo sapiens, UniProt P00533); experiment: EGFR-TK inhibition assay (BPS Bioscience EGFR Kinase Assay Kit); type: biochemical
T1 construct: purchased BPS Bioscience 40321
Excerpt: S4.2.1. Cytotoxic activity evaluation
adenocarcinoma (MCF-7) cell line.
Dimethyl sulphoxide (DMSO) in
S4.2.2. EGFR kinase Assay

MCF-7 cells [2] = experiment: Cell cycle analysis by flow cytometry (PI staining); type: cell-based
Method: It is well documented that most tyrosine kinase inhibitors exert strong antiproliferative and pro-apoptotic effect.[38] […] These findings are in agreement with the previously observed for EGFR-TK structural analogues.[39]
S4.2.3. Cell cycle analysis of compound 6h
Cell cycle analysis in MCF-7 cells was investigated using fluorescent […] (BioVision EZCellTM Cell Cycle Analysis Kit Catalog #K920) by flow cytometry assay. MCF-7 cells at a density of 2 × 10^5 per well were harvested and washed twice in PBS. After that, the cells were incubated at 37 °C and 5% CO2. The medium was incubated with the tested compound 6h at the IC50 (µM) for 48 h, washed twice in PBS, fixed with 70% ethanol, rinsed again with PBS. Afterward, medium was stained with DNA fluorochrome PI for 15 min at 37 °C. The samples were immediately analyzed using Facs Calibur flow cytometer (Becton and Dickinson, Heidelberg, […]
S4.2.4. Apoptosis assay for compound 6h
(1 picture or pasted object on this page, not shown here)

MCF-7 cells [3] = experiment: Annexin V FITC/PI apoptosis staining assay by flow cytometry; type: cell-based; conditions: 2.71 μM, 48 h
Excerpt: In addition, an increase in the primary apoptotic cells was also observed. It is noteworthy that, the percentage of primary apoptosis was rise from 0.39 to 9.55% as compared to DMSO control (Fig. 4). According to these findings, it could be concluded that this set of compounds could halt MCF-7 cells in G1 phase and provoke apoptotic cellular death.
Apoptosis in MCF-7 cells was investigated using fluorescent Annexin V-FITC/ PI detection kit (BioVision Annexin V-FITC Apoptosis Detection Kit, Catalog #: K101) by flow cytometry assay. MCF-7 cells at a density of 2 × 10^5 per well were treated with compound 6h at the IC50 (µM) for 48 h, then the cells were harvested and stained with Annexin V-FITC/ PI dye for 15 min in the dark at 37 °C. The samples were immediately analyzed using FACS Calibur flow cytometer (Becton and Dickinson, […]

p53 = experiment: Apoptotic marker determination by qRT-PCR: p53; type: cell-based; conditions: MCF-7 cells, 2.71 μM, 48 h, compared to DMSO controls
Excerpt: (§1) p53 is a transcription factor that both initiates and suppresses a number of target genes involved in cancer progression and apoptosis.[40] The p53 protein level increase during cellular stress and cytotoxic drugs by increased transcription or increased stability due to post-translational modifications such as phosphorylation.[41] The ability of p53 to modulate caspase activation and apoptosis induction is critical to its role as tumor suppressor.[42] Coordinately, p53 activation promotes the loss of mitochondrial potential ultimately leading to caspase activation and apoptosis.[43] […] An increase in the level of p53 was detected in the tested cell line compared with controls at 48 h. The increased expression of p53 level was coupled with increase in the level of caspase 9 in compound 6h-treated MCF-7 cell line at 48 h. The levels of p53 and caspase 9 were increased by 7.4- and 8.7-fold, respectively compared with controls (Fig. 5).
(§2) MCF-7 cells were treated with 2.71 μM of tested hybrid for 48 h before qRT-PCR measurement and compared to untreated controls. (A) p53 level; (B) caspase 9 level.

caspase 9 = experiment: Apoptotic marker determination by qRT-PCR: caspase 9; type: cell-based; conditions: MCF-7 cells, 2.71 μM, 48 h, compared to DMSO controls
Excerpt: as §1, §2

T1 sequence (P00533 25-1210): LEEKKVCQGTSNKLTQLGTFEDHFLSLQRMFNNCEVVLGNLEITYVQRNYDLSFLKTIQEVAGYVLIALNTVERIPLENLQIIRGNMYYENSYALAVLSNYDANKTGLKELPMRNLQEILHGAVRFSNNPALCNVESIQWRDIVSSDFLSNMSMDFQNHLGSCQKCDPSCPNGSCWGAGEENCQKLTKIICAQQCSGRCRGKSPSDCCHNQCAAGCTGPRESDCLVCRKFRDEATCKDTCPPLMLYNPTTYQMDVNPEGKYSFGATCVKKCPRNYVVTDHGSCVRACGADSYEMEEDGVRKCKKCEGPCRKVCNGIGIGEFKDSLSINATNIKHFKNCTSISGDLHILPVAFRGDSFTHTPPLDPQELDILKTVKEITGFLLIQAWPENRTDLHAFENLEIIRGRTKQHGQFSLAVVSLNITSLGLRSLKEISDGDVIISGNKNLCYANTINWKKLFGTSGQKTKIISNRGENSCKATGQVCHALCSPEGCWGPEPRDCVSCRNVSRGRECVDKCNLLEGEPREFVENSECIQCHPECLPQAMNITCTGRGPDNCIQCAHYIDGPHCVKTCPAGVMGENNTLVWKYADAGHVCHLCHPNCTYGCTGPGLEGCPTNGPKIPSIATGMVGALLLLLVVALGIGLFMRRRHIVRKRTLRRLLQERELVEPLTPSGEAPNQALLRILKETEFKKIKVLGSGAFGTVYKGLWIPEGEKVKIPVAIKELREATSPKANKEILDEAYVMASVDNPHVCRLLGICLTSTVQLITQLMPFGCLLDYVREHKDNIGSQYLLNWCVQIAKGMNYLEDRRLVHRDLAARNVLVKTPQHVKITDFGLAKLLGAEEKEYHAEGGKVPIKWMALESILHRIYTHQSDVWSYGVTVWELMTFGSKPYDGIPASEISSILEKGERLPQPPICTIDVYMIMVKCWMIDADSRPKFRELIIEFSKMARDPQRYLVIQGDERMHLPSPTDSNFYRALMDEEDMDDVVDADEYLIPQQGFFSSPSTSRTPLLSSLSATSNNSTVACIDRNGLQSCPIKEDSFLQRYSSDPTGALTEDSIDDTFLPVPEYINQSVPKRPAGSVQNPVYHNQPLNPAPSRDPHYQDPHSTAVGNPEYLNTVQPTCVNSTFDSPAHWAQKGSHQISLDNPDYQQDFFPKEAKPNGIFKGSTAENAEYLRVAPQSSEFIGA

| SMILES | melting point [°C] | IC50 [1] [µM] | other results |
| --- | --- | --- | --- |
| COc1ccc(C(=O)N/C(=C\c2ccco2)C(=O)NNC(=O)c2cc(-c3ccc(Br)cc3)nc3ccccc23)cc1 [Compound 5, (Z)-N-(3-(2-(2-(4-Bromophenyl)quinoline-4-carbonyl)hydrazinyl)-1-(furan-2-yl)-3-oxoprop-1-en-2-yl)-4-methoxybenzamide] | 257 to 259 | 12.5 ± 0.4 | – |
| COc1ccc(C(=O)N/C(=C\c2ccc(C)cc2)C(=O)NNC(=O)c2cc(-c3ccc(Br)cc3)nc3ccccc23)cc1 [Compound 6a, (Z)-N-(3-(2-(2-(4-Bromophenyl)quinoline-4-carbonyl)hydrazinyl)-3-oxo-1-p-tolylprop-1-en-2-yl)-4-methoxybenzamide] | 246 to 248 | 3.39 ± 0.11 | IC50 (EGFR kinase): 0.31 µM |
| COc1ccc(C(=O)N/C(=C\c2ccc(OC)c(OC)c2)C(=O)NNC(=O)c2cc(-c3ccc(Br)cc3)nc3ccccc23)cc1 [Compound 6b, (Z)-N-(3-(2-(2-(4-Bromophenyl)quinoline-4-carbonyl)hydrazinyl)-1-(3,4-dimethoxyphenyl)-3-oxoprop-1-en-2-yl)-4-methoxybenzamide] | 235 to 237 | 5.94 ± 0.17 | – |
| COc1ccc(C(=O)N/C(=C\c2ccc(OC)c(OC)c2OC)C(=O)NNC(=O)c2cc(-c3ccc(Br)cc3)nc3ccccc23)cc1 [Compound 6c, (Z)-N-(3-(2-(2-(4-Bromophenyl)quinoline-4-carbonyl)hydrazinyl)-3-oxo-1-(2,3,4-trimethoxyphenyl)prop-1-en-2-yl)-4-methoxybenzamide] | 192 to 194 | 51.8 ± 1.54 | – |
| COc1ccc(C(=O)N/C(=C\c2cc(OC)c(OC)c(OC)c2)C(=O)NNC(=O)c2cc(-c3ccc(Br)cc3)nc3ccccc23)cc1 [Compound 6d, (Z)-N-(3-(2-(2-(4-Bromophenyl)quinoline-4-carbonyl)hydrazinyl)-3-oxo-1-(3,4,5-trimethoxyphenyl)prop-1-en-2-yl)-4-methoxybenzamide] | 208 to 210 | 17.1 ± 0.55 | – |
| COc1ccc(C(=O)N/C(=C\c2ccc(F)cc2)C(=O)NNC(=O)c2cc(-c3ccc(Br)cc3)nc3ccccc23)cc1 [Compound 6e, (Z)-N-(3-(2-(2-(4-Bromophenyl)quinoline-4-carbonyl)hydrazinyl)-1-(4-fluorophenyl)-3-oxoprop-1-en-2-yl)-4-methoxybenzamide] | 258 to 260 | 21.2 ± 0.68 | – |
| COc1ccc(C(=O)N/C(=C\c2ccc(Cl)cc2)C(=O)NNC(=O)c2cc(-c3ccc(Br)cc3)nc3ccccc23)cc1 [Compound 6f, (Z)-N-(3-(2-(2-(4-Bromophenyl)quinoline-4-carbonyl)hydrazinyl)-1-(4-chlorophenyl)-3-oxoprop-1-en-2-yl)-4-methoxybenzamide] | 276 to 278 | 26 ± 0.84 | – |
| COc1ccc(C(=O)N/C(=C\c2ccc(Br)cc2)C(=O)NNC(=O)c2cc(-c3ccc(Br)cc3)nc3ccccc23)cc1 [Compound 6g, (Z)-N-(1-(4-Bromophenyl)-3-(2-(2-(4-bromophenyl)quinoline-4-carbonyl)hydrazinyl)-3-oxoprop-1-en-2-yl)-4-methoxybenzamide] | 261 to 263 | 39.1 ± 1.26 | – |
| COc1ccc(C(=O)N/C(=C\c2ccc([N+](=O)[O-])cc2)C(=O)NNC(=O)c2cc(-c3ccc(Br)cc3)nc3ccccc23)cc1 [Compound 6h, (Z)-N-(3-(2-(2-(4-Bromophenyl)quinoline-4-carbonyl)hydrazinyl)-1-(4-nitrophenyl)-3-oxoprop-1-en-2-yl)-4-methoxybenzamide] | – | 2.71 ± 0.09 | IC50 (EGFR kinase): 0.22 µM; G1 phase arrest, fold more than DMSO controls (MCF-7 cells [2]; 2.71 μM): 1.3 fold; percentage of cells in G2/M phase (MCF-7 cells [2]; 2.71 μM (IC50) of compound, 48 h, DMSO control 15.56%): 9.37%; percentage of cells in S phase (MCF-7 cells [2]; 2.71 μM (IC50) of compound, 48 h, DMSO control 37.51%): 28.48%; proportion of cells in G1 phase (MCF-7 cells [2]; 2.71 μM (IC50) of compound, 48 h, DMSO control 46.93%): 62.15%; percentage of secondary cellular apoptosis (MCF-7 cells [3]; DMSO control 0.11%): 17.78%; percentage of primary apoptosis (MCF-7 cells [3]; DMSO control 0.39%): 9.55%; increase of p53 level vs controls (p53): 7.4 fold; increase of caspase 9 level vs controls (caspase 9): 8.7 fold |
| COc1ccc(C(=O)N/C(=C\c2cc(Br)c(OC(C)=O)c(Br)c2)C(=O)NNC(=O)c2cc(-c3ccc(Br)cc3)nc3ccccc23)cc1 [Compound 6i, (Z)-2,6-Dibromo-4-(3-(2-(2-(4-bromophenyl)quinoline-4-carbonyl)hydrazinyl)-2-(4-methoxybenzamido)-3-oxoprop-1-enyl)phenyl acetate] | 217 to 219 | 8.77 ± 0.28 | – |
| COc1cccc2c1C(=O)c1c(O)c3c(c(O)c1C2=O)C[C@@](O)(C(=O)CO)C[C@@H]3O[C@H]1C[C@H](N)[C@H](O)[C@H](C)O1 [Dox, Doxorubicin, reference compound] | – | 6.18 ± 0.2 | – |
